Assay [1] relates to A549. In words: Antiproliferative activity against human A549 cells after 72 hrs. Format: functional, cell-based. Conditions: A549, 72 h.
Assay [2] deals with MCF7. The assay is described as follows: Antiproliferative activity against human MCF7 cells after 72 hrs. Format: functional, cell-based. Conditions: MCF7, 72 h.
Assay [3] is described as follows: Inhibition of CDK1/Cyclin B. The arrangement: species or system Homo sapiens.
Assay [4] relates to Bel-7402. In words: Antiproliferative activity against human Bel7402 cells after 72 hrs. The assay is classed as functional, cell-based. Conditions: Bel-7402, 72 h.
In assay [5] the test system is PC-3. The assay is described as follows: Antiproliferative activity against human PC3 cells after 72 hrs. The assay is classed as functional, cell-based. Particulars: PC-3, 72 h.
Assay [6] can be described thus: Antiproliferative activity against human ECA109 cells after 72 hrs. The assay is classed as functional, cell-based. Particulars: ECa-109, 72 h.
Assay [7] concerns HL-60. The assay is described as follows: Antiproliferative activity against human HL60 cells after 72 hrs. Format: functional, cell-based. Particulars: HL-60, 72 h.
Assay [8] concerns PC-3. The assay is described as follows: Cell cycle arrest in human PC3 cells assessed as accumulation at S phase at 7.2 uM after 12 hrs relative to control by flow cytometry. Format: functional.
The subject of assay [9] is PC-3. In words: Cell cycle arrest in human PC3 cells assessed as accumulation at G2/M phase at 7.2 uM after 24 hrs relative to control by flow cytometry. The assay is classed as functional. (Flow cytometry measures light scatter and fluorescence of single cells or particles in a stream.)
The test system of assay [10] is PC-3. In words: Cell cycle arrest in human PC3 cells assessed as accumulation at G0/G1 phase at 7.2 uM after 12 hrs relative to control by flow cytometry. The assay is classed as functional.
Assay [11] relates to PC-3. The assay is described as follows: Effect on morphology of human PC3 cells assessed as increase in chromatin condensation by staining method. Format: functional, cell-based.
Assay [12] concerns PC-3. The assay is described as follows: Cell cycle arrest in human PC3 cells assessed as accumulation at G0/G1 phase at 7.2 uM after 24 hrs relative to control by flow cytometry. The assay is classed as functional.
In assay [13] the test system is PC-3. The assay is described as follows: Cell cycle arrest in human PC3 cells assessed as accumulation at G2/M phase at 7.2 uM after 12 hrs relative to control by flow cytometry. The assay is classed as functional.
Assay [14] relates to PC-3. In words: Cell cycle arrest in human PC3 cells assessed as accumulation at SubG0 phase at 7.2 uM after 24 hrs relative to control by flow cytometry. Format: functional.
The subject of assay [15] is PC-3. In words: Cell cycle arrest in human PC3 cells assessed as accumulation at SubG0 phase at 7.2 uM after 12 hrs relative to control by flow cytometry. The assay is classed as functional.
Assay [16] has as its system PC-3. The assay is described as follows: Cell cycle arrest in human PC3 cells assessed as accumulation at S phase at 7.2 uM after 24 hrs relative to control by flow cytometry. Format: functional.

One may read the IC50 as the point on the concentration scale where inhibition reaches its midpoint. Regarding `COc1cc(OC)c(C(=O)/C=C/c2ccccc2Cl)c(O)c1CN(C)C`, the IC50 in [1] came out at 2.1 µM; in [2], 0.09 µM; in [3], 0.503 µM; in assay [4], 21.8 µM; in assay [5], 0.4 µM; in [6], 2.6 µM. Also, the midpoint of inhibition in assay [7], the IC50, lay at 19.2 µM.
Consider `COc1cc(OC)c(C(=O)/C=C/c2ccccc2Cl)c(O)c1CN(C)CCO`, for which the IC50 is 6.9 µM in assay [1]; 10 µM in assay [2]; over 3 µM in assay [3]; 64.4 µM in assay [4]; 6.2 µM in assay [5]; 0.8 µM in assay [6]. In assay [7], this molecule registered an IC50 of 19.7 µM.
As for `COc1cc(OC)c(C(=O)/C=C/c2ccccc2Cl)c(O)c1CN(C)CCOC(C)=O`, the IC50 amounted to 3.3 µM in [1]; 5.1 µM in [2]; 0.324 µM in assay [3]; 8.1 µM in [4]; 10 µM in assay [5]; 3.9 µM in assay [6]. For the same molecule, half-maximal inhibition in assay [7] (IC50) required 10.8 µM.
With `CCN(CC)Cc1c(OC)cc(OC)c(C(=O)/C=C/c2ccccc2Cl)c1O`, the IC50 in assay [1] was found to be 3.6 µM; in [2], 2.7 µM; in assay [3], 0.0497 µM; in [4], 6.7 µM; in [5], 4.2 µM; in assay [6], 7.1 µM. This molecule also registered an IC50 in assay [7] of 30.9 µM.
As to `COc1cc(OC)c(C(=O)/C=C/c2ccccc2Cl)c(O)c1CN(C)CCCN(C)C`, the IC50 was 3.1 µM in assay [1]; 3.2 µM in assay [2]; 0.468 µM in assay [3]; 30.9 µM in assay [4]; 14.5 µM in [5]; 3.8 µM in [6]. The molecule further returned an IC50 in assay [7] of 11.4 µM.
`COc1cc(OC)c(C(=O)/C=C/c2ccccc2Cl)c(O)c1CN1CCOCC1`: the IC50 in assay [1] turned out to be 4.8 µM; in assay [2] it was 17.2 µM; in assay [3], 0.0475 µM; in [4] it was 22.7 µM; in assay [5], 17.2 µM; in assay [6], 6.2 µM. In assay [7], this molecule displayed an IC50 of 6.9 µM.
For the molecule `COc1cc(OC)c(C(=O)/C=C/c2ccccc2Cl)c(O)c1CN1CCN(C)CC1`, the IC50 in assay [1] is 4.1 µM; in assay [2], 5.2 µM; in assay [3], over 3 µM; in [4], 7.6 µM; in assay [5], 4.7 µM; in assay [6] it was 7.1 µM. The molecule further came in with an IC50 in [7] of 10.9 µM.
Regarding `COc1cc(OC)c(C(=O)/C=C/c2ccccc2Cl)c(O)c1CN(C)CC(=O)O`, the IC50 was determined as 79.4 µM in assay [1]; 73.2 µM in assay [2]; 35.2 µM in [4]; 12.5 µM in assay [5]; 44.4 µM in assay [6]; 80.3 µM in [7].
As for `COc1cc(O)c2c(=O)cc(-c3ccccc3Cl)oc2c1CN1CCOCC1`, the IC50 in assay [1] is over 150 µM; in assay [2] it was 124 µM; in assay [3], over 3 µM; in [4] it was over 150 µM; in [5] it was 42 µM; in [6] it was 86.6 µM. The same molecule had a concentration for half-maximal inhibition (IC50) in assay [7] of 26.9 µM.
Regarding `COc1cc(OC)c(C(=O)/C=C/c2ccccc2Cl)c(O)c1CN1CCCCC1`, the Activity in [8] was 25.8%; in assay [9], 9.8%; in assay [10], 60.2%; in assay [11], “Dose-dependent effect”; in assay [12], 60.7%; in assay [13] it was 14%. For the same molecule, the Activity in assay [14] is recorded as 34.1%; in assay [15], 6.1%; in assay [16], 29.9%. In addition, the IC50 in [1] was found to be 2.8 µM; in [2], 2.6 µM; in assay [3] it was 0.0569 µM; in [4] it was 3.1 µM; in [5], 1.7 µM; in assay [6], 2.5 µM. Besides, in [7], half-maximal inhibition (IC50) was put at 3.6 µM.
For the molecule `COc1cc(OC)c(C(=O)/C=C/c2ccccc2Cl)c(O)c1CN1CCCC1`, the IC50 in assay [1] amounted to 2.6 µM; in [2], 3.9 µM; in assay [3], 1.25 µM; in [4] it was 6.8 µM; in assay [5], 3.1 µM; in assay [6] it was 6.9 µM. Moreover, in assay [7], the midpoint of inhibition, the IC50, lay at 14.2 µM.
`COc1cc(OC)c2c(=O)cc(-c3ccccc3Cl)oc2c1CN1CCOCC1`: the IC50 was over 150 µM in assay [1]; over 3 µM in [3]; 61.3 µM in assay [4]; 57.8 µM in [5]; 61.3 µM in assay [6]; 67.3 µM in assay [7].
For the molecule `COc1cc(O)c2c(=O)cc(-c3ccccc3Cl)oc2c1CN1CCCCC1`, the IC50 in assay [1] stood at 45.5 µM; in assay [3], 0.138 µM; in [4], 118 µM; in assay [5], 63.4 µM; in assay [6], 21.5 µM; in assay [7], 48.1 µM.
On to `COc1cc(OC)c2c(=O)cc(-c3ccccc3Cl)oc2c1CN1CCCCC1`, for which the IC50 is over 150 µM in assay [1]; 23.7 µM in assay [2]; 0.155 µM in assay [3]; 44.2 µM in assay [4]; 15.5 µM in assay [5]; 23.7 µM in assay [6]. In assay [7], this molecule yielded an IC50 of 34.5 µM.
As to `CCN(C)Cc1c(OC)cc(OC)c(C(=O)/C=C/c2ccccc2Cl)c1O`, the IC50 came out at 1.3 µM in [1]; 6.8 µM in assay [2]; 0.0758 µM in [3]; 23.3 µM in [4]; 0.003 µM in [5]; 1.4 µM in assay [6]. Further, in [7], the IC50 was determined as 0.2 µM.
For `COC(=O)CN(C)Cc1c(OC)cc(OC)c(C(=O)/C=C/c2ccccc2Cl)c1O`, the IC50 is 9.1 µM in assay [1]; 10.6 µM in [2]; over 3 µM in [3]; 8.5 µM in assay [4]; 7.2 µM in [5]; 13.9 µM in assay [6]. This molecule yielded an IC50 in [7] of 0.4 µM.

(Values after ChEMBL document CHEMBL1138403, “Nitrogen-containing flavonoids as CDK1/Cyclin B inhibitors: design, synthesis, and biological evaluation” (Bioorg Med Chem Lett, 2007).)
